Measured values taken from patent US20040071967A1, “Microcapsule containing phase-change material and nucleating agent” (priority 2000, published 2004).
Read-outs that look alike come from different tables or passages of the source. Values belong to the substance of their own block, whether it stands above or below them.

Legend:
Format in all cases: physicochemical
[1] = Ross-Miles foam test based upon ASTM D 1173-53, 0.1 wt % solution; conditions: Tables 5 and 6; for RM Foam initial: initial foam height
Description: The foam height is measured at the completion of the addition (“Initial Foam Height”) and the time required for the foam to dissipate is recorded (“Time to 0 Foam”). This test provides a comparison between the foaming characteristics of various surfactant solutions. In general, in coatings, inks, and agricultural formulations, foam is undesirable because is complicates handling and can lead to coating and print defects, and to inefficient application of agricultural materials.

[2] = Critical aggregation concentration (solubility limit or critical micelle concentration)
Description: (§1) The critical aggregation concentrations (solubility limit or critical micelle concentration) were determined by intersection of the linear portion of a surface tension/In concentration curve with the limiting surface tension as is described in many textbooks. The limiting surface tensions at 0.1 and 20 bubbles/second (b/s) represent the lowest surface tensions in water which can be achieved at the given surface creation rate for a given surfactant regardless of the amount of surfactant used. These values give information about the relative ability to a surfactant to reduce surface defects under near-equilibrium condition (0.1 b/s) through very dynamic conditions (20 b/s). Lower surface tensions would allow the elimination of defects upon application of a formulation onto lower energy surfaces.

[3] = Dynamic surface tension of aqueous solutions, maximum bubble pressure method; conditions: for γ (0.1% solution) 1 b/s / γ (0.1% solution) 6 b/s / limiting γ 0.1 b/s / limiting γ 20 b/s / pC20: Tables 5 and 6; for limiting γ 0.1 b/s / limiting γ 20 b/s: lowest surface tension in water; for pC20: negative logarithm of molar concentration giving 52.1 dyne/cm at 0.1 b/s
Description: as §1, with “In practical terms, high bubble rates correspond to high printing speeds in lithographic printing, high spray or roller velocities in coating applications, and rapid application rates for agricultural products. […] This value is a measure of the efficiency of a surfactant. […] The critical” for “The critical”

RM Foam initial [1]: 1.0 cm
RM Foam (t to 0) ([1]; time to 0 foam): (10 s)
Sol Limit [2]: 0.21 wt %
γ (0.1% solution) 1 b/s ([3]; 1 b/s): 33.6 dyne/cm
γ (0.1% solution) 6 b/s ([3]; 6 b/s): 36.6 dyne/cm
limiting γ 0.1 b/s ([3]; 0.1 b/s): 29.3 dyne/cm
limiting γ 20 b/s ([3]; 20 b/s): 31.4 dyne/cm
pC20 [3]: 4.07
Substance: 3.5 mole ethoxylate of 2,4,7,9-tetramethyl-5-decyne-4,7-diol capped with 2 moles of propylene oxide [Example 3]

RM Foam (foam height remaining) ([1]; cm after 5 minutes): (1.3) cm
RM Foam initial [1]: 2.1 cm
Sol Limit ([2]; water, Tables 5 and 6, unit printed only in Table 7 footnote): (0.78) wt %
γ (0.1% solution) 1 b/s ([3]; 1 b/s): 42.0 dyne/cm
γ (0.1% solution) 6 b/s ([3]; 6 b/s): 44.3 dyne/cm
Dynamic Surface Tension ([3]; 0.1 wt % in distilled water, 0.1 b/s): 40.5 dyne/cm
Dynamic Surface Tension ([3]; 0.1 wt % in distilled water, 1 b/s): 42.0 dyne/cm
Dynamic Surface Tension ([3]; 0.1 wt % in distilled water, 6 b/s): 44.3 dyne/cm
Dynamic Surface Tension ([3]; 0.1 wt % in distilled water, 15 b/s): 47.1 dyne/cm
Dynamic Surface Tension ([3]; 0.1 wt % in distilled water, 20 b/s): 48.1 dyne/cm
Dynamic Surface Tension ([3]; 0.5 wt % in distilled water, 0.1 b/s): 32.4 dyne/cm
Dynamic Surface Tension ([3]; 0.5 wt % in distilled water, 1 b/s): 33.6 dyne/cm
Dynamic Surface Tension ([3]; 0.5 wt % in distilled water, 6 b/s): 35.1 dyne/cm
Dynamic Surface Tension ([3]; 0.5 wt % in distilled water, 15 b/s): 36.6 dyne/cm
Dynamic Surface Tension ([3]; 0.5 wt % in distilled water, 20 b/s): 37.2 dyne/cm
Dynamic Surface Tension ([3]; 1.0 wt % in distilled water, 0.1 b/s): 29.8 dyne/cm
Dynamic Surface Tension ([3]; 1.0 wt % in distilled water, 1 b/s): 30.5 dyne/cm
Dynamic Surface Tension ([3]; 1.0 wt % in distilled water, 6 b/s): 32.1 dyne/cm
Dynamic Surface Tension ([3]; 1.0 wt % in distilled water, 15 b/s): 33.0 dyne/cm
Dynamic Surface Tension ([3]; 1.0 wt % in distilled water, 20 b/s): 33.7 dyne/cm
limiting γ 0.1 b/s ([3]; 0.1 b/s): 29.8 dyne/cm
limiting γ 20 b/s ([3]; 20 b/s): 33.7 dyne/cm
pC20 [3]: 4.05
Substance: 10 mole EO/2 mole PO block derivative of 2,4,7,9-tetramethyl-5-decyne-4,7-diol [Example 5]
